Measurements from US10786471B2, “Methods and products related to glutaminase inhibitors” (Massachusetts Institute of Technology, priority 2017, dated 2020).
Entries after “also recorded” stand apart in the source; their conditions may differ. Read-outs that look alike come from different tables or passages of the source.

Tests used:
MDA-MB-468 = test: Proliferation rate of MDA-MB-468 cells overexpressing SLC7A11 with 1 μM CB-839; assay type: cell-based; settings: SLC7A11 overexpression, RPMI vs RPMI (10 μM cystine)
Method: (§1) Proliferation rates for MDA-MB-468 and AU565 cell lines overexpressing SLC7A11 or not (from FIG. 4G) in RPMI or RPMI (10 μM cystine) with vehicle (DMSO) or 1 μM CB-839 are shown. The values represent the mean and the error bars represent ±SEM.
(§2) Cell lines growing in log phase in RPMI medium were trypsinized, counted and plated into 6 well dishes in 2 mL of RPMI medium and incubated overnight. Initial seeding density was 20,000 cells/well for A549 cells, or 50,000 cells for MCF7, AU565 and MDA-MB-468 cells. The next day, a plate of cells was trypsinized and counted to provide a number of cells at the start of the experiment. Cells were then washed twice with 2 mL of PBS, and […] of the indicated media premixed with indicated compounds or vehicles was added. Cells were then counted 4 days after adding the indicated medias. Proliferation rate was determined using the following formula:
(§3) Proliferation rate in doublings/day=[Log 2(Final Day 4 cell count/Initial Day 0 cell count)]/4 days. Cells were counted using a Cellometer Auto t$ Plus Cell Counter (Nexcelom Bioscience).

AU565 = test: Proliferation rate of AU565 cells overexpressing SLC7A11 with 1 μM CB-839; assay type: cell-based; settings: SLC7A11 overexpression, RPMI vs RPMI (10 μM cystine)
Method: as §1, §2, §3

breast cancer cell lines = settings: RPMI, cited from earlier work
A549 cells [1] = test: 13C5-glutamine tracing of glutamine anaplerosis in cultured A549 cells; assay type: cell-based, human; settings: A549 cells cultured 8 h; high cystine (208 μM added to adult bovine serum)
Text: Each medium included ^13C5-glutamine added to ˜33% enrichment (n=3). […] For all parts of the figure, the values represent the mean and the error bars represent ±SEM.

A549 tumors = test: Tumor glutamine anaplerosis in A549 tumor-bearing mice after oral cystine; assay type: in vivo; settings: oral cystine before 13C5-glutamine bolus
Method: In FIG. 5A, nu/nu mice were treated orally with 2.4 g/kg cystine and plasma from these animals was serially collected at the indicated time points. Cystine concentration of the plasma was determined by GC-MS. In FIG. 5B, A549 tumor-bearing mice were treated (n=4) or not (n=3) with oral cystine prior to bolus ^13C5-glutamine injection prior to harvesting the plasma and tumors. […] In FIG. 5C, intratumoral glutamate (m+5) and α-ketoglutarate (m+5) labeling from FIG. 5B were normalized to tumor glutamine (m+5).

A549 cells [2] = test: Proliferation rate of A549 cells with vehicle or 1 μM CB-839 in different media; assay type: cell-based, human; settings: cystine at RPMI/DMEM levels
Method: Each medium included ^13C5-glutamine added to ˜33% enrichment (n=3). […] For all parts of the figure, the values represent the mean and the error bars represent ±SEM. […] In FIG. 8A, A549 cells were cultured in adult bovine serum with DMEM nutrient levels, adult bovine serum with DMEM amino acid levels, and adult bovine serum with DMEM amino acid levels but without supplementation of the amino acids indicated in each column. For each medium, the proliferation rate for cells grown with vehicle (DMSO) or 1 μM CB-839 is shown (n=3). […] Cell lines growing in log phase in RPMI medium were trypsinized, counted and plated into 6 well dishes in 2 mL of RPMI medium and incubated overnight. […] The next day, a plate of cells was trypsinized and counted to provide a number of cells at the start of the experiment. […] Cells were then counted 4 days after adding the indicated medias. Proliferation rate was determined using the following formula: Proliferation rate in doublings/day=[Log 2(Final Day 4 cell count/Initial Day 0 cell count)]/4 days. Cells were counted using a Cellometer Auto t$ Plus Cell Counter (Nexcelom Bioscience).

SMILES | sensitivity of proliferation to CB-839 (MDA-MB-468) | sensitivity of proliferation to CB-839 (AU565) | IC50 (breast cancer cell lines; 'resistant' breast cancer cell lines, maximal CB-839 tested 1 μM) | IC50 (breast cancer cell lines; sensitive breast cancer cell lines) | effect on glutamine anaplerosis (fractional labeling from 13C5-glutamine) (A549 cells [1]) | effect on tumor glutamine anaplerosis in vivo (A549 tumors) | effect of cystine on CB-839 inhibition of proliferation (A549 cells [2])
O=C(Cc1cccc(OC(F)(F)F)c1)Nc1ccc(CCCCc2nnc(NC(=O)Cc3ccccn3)s2)nn1 [CB-839] | cystine-induced CB-839 sensitivity | cystine-induced CB-839 sensitivity | > 1 µM | < 1 µM |  |  | 
N[C@@H](CSSC[C@H](N)C(=O)O)C(=O)O [cystine] |  |  |  |  | enhance glutamine anaplerosis | increases tumor glutamine anaplerosis in vivo | potentiate the effects of the glutaminase inhibitor CB-839; also recorded: potentiates the glutaminase inhibitor CB-839
